According to patent publication US20110207783A1, “RENIN INHIBITORS” (priority 2007, published 2011):

Legend:
renin in human plasma = molecular target: T1, renin in human plasma (Homo sapiens, UniProt P00797); assay: Inhibition of renin in human plasma; format: biochemical
T1 construct: from tissue; host or cells: human plasma from 10 normal donors, spiked with human recombinant renin (3 pM)
T1 sequence (P00797 67-406): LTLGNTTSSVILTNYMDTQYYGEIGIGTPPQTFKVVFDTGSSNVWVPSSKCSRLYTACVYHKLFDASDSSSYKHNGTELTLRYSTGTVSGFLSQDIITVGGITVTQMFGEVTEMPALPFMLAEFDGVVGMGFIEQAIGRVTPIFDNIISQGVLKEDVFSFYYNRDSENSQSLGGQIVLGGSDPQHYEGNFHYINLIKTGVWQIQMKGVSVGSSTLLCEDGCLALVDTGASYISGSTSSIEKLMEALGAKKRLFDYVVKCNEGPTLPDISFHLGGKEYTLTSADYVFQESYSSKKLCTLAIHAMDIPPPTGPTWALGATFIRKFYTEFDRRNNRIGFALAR
Method: The enzymatic in vitro assay was performed in 384-well polypropylene plates (Nunc). The assay buffer consisted of PBS (Gibco BRL) including 1 mM EDTA and 0.1% BSA. The reaction mixture was composed of 80 μL per well of human plasma, enzyme, Ang I-antibodies mix and 5 μL of renin inhibitors in DMSO. The human plasma mix was premixed at 4° C. and consists of • human plasma from 10 normal donors • human recombinant renin (3 pM) • Ang I-antibodies. The mixtures were then incubated at 37° C. for 2 h.
To determine the enzymatic activity and its inhibition, the accumulated Ang I was detected by an enzyme immunoassay (EIA) in 384-well plates (Nunc). 10 μL of the reaction mixture or standards were transferred to immuno plates which were previously coated with a covalent complex of Ang I and bovine serum albumin (Ang I-BSA). 70 μL assay buffer were added and the plates were incubated at 4° C. overnight. The plates were washed 3 times with PBS including 0.01% Tween 20, and then incubated for 2 h at RT with an anti rabbit-peroxidase coupled antibody (WA 934, Amersham). […]

Renin = molecular target: T2, Renin (Homo sapiens, UniProt P00797); assay: Renin QFRET; format: biochemical
T2 sequence (P00797 67-406): T1 sequence (P00797 67-406)

IC50 (renin in human plasma): 240 nM | IC50 (Renin): 17 nM
SMILES: COCCCc1ccc(Cl)c(CN(C(=O)C(CN)Cc2cccnc2N)C2CC2)c1 (centres unmarked) [Example 5, 3-amino-2-[(2-amino-3-pyridinyl)methyl]-N-({2-chloro-5-[3-(methyloxy)propyl]phenyl}methyl)-N-cyclopropylpropanamide]
